40 compounds from ChEMBL document CHEMBL4321806 (J Med Chem, 2019) can be followed below.

This experiment in a line: Cytotoxicity against mouse L929 cells assessed as reduction in cell viability.
For `COC(=O)c1cccc(COc2c(-c3ccc(OCCOCCn4cc(CN5CCN(Cc6cn(CCOCCOc7ccc(-c8oc9ccccc9c(=O)c8OCc8cccc(C(=O)OC)c8)cc7)nn6)CC5)nn4)cc3)oc3ccccc3c2=O)c1`, the half-maximal inhibitory concentration (IC50) is over 100 µM.

As to `O=c1cc(-c2ccccc2)oc2cc(OCCOCCn3cc(COCCOc4ccc5c(=O)cc(-c6ccccc6)oc5c4)nn3)ccc12`, the IC50 was over 100 µM.

For `COC(=O)c1cccc(COc2c(-c3ccc(OCCOCCOCCn4cc(CCCCOc5ccc6c(=O)cc(-c7ccccc7)oc6c5)nn4)cc3)oc3ccccc3c2=O)c1`, the IC50 was over 100 µM.

For `O=c1cc(-c2ccc(OCCOCCOCCn3cc(COCCOc4ccc5c(=O)cc(-c6ccccc6)oc5c4)nn3)cc2)oc2ccccc12`, the IC50 worked out at 22 µM.

As for `COC(=O)c1cccc(COc2c(-c3ccc(OCCOCCn4cc(-c5ccc(-c6cn(CCOCCOc7ccc(-c8oc9ccccc9c(=O)c8OCc8cccc(C(=O)OC)c8)cc7)nn6)cc5)nn4)cc3)oc3ccccc3c2=O)c1`, the IC50 was over 100 µM.

Consider `O=c1cc(-c2ccccc2)oc2cc(OCCCCc3cn(CCOCCOCCOc4ccc(-c5cc(=O)c6cc(F)ccc6o5)cc4)nn3)ccc12`, for which the 50% inhibitory concentration (IC50) was over 100 µM.

In the case of `O=c1cc(-c2ccc(OCCCc3cn(CCOCCOCCOc4ccc(-c5oc6ccccc6c(=O)c5OCc5ccccc5)cc4)nn3)cc2)oc2cc(F)ccc12`, the IC50 was over 100 µM.

`COC(=O)c1cccc(COc2c(-c3ccc(OCCOCCOCCn4cc(COCCOc5ccc6c(=O)cc(-c7ccccc7)oc6c5)nn4)cc3)oc3ccccc3c2=O)c1`: the IC50 was over 100 µM.

Regarding `COC(=O)c1cccc(COc2c(-c3ccc(OCCOCCn4cc(CN(C)CCN(C)Cc5cn(CCOCCOc6ccc(-c7oc8ccccc8c(=O)c7OCc7cccc(C(=O)OC)c7)cc6)nn5)nn4)cc3)oc3ccccc3c2=O)c1`, the IC50 was over 100 µM.

Regarding `O=c1cc(-c2ccccc2)oc2cc(OCCOCCOCCn3cc(COCCOc4ccc5c(=O)cc(-c6ccccc6)oc5c4)nn3)ccc12`, the IC50 turned out to be 12.1 µM.

Take `Cc1ccc2oc(-c3ccc(OCCCCc4cn(CCOc5ccc6c(=O)cc(-c7ccccc7)oc6c5)nn4)cc3)cc(=O)c2c1`: the IC50 is 9.2 µM.

Take `O=c1cc(-c2ccccc2)oc2cc(OCCOCc3cn(CCOCCOc4ccc(-c5oc6ccccc6c(=O)c5OCc5ccccc5)cc4)nn3)ccc12`: the IC50 was over 100 µM.

Consider `Cc1ccc2oc(-c3ccc(OCCCCc4cn(CCN(CCOc5ccc(-c6cc(=O)c7ccccc7o6)cc5)Cc5ccccc5)nn4)cc3)cc(=O)c2c1`, for which the IC50 is over 100 µM.

`O=c1cc(-c2ccccc2)oc2cc(OCCn3cc(CN(Cc4ccccc4)Cc4cn(CCOc5ccc6c(=O)cc(-c7ccccc7)oc6c5)nn4)nn3)ccc12`: the IC50 is over 100 µM.

For `Cc1ccc2oc(-c3ccc(OCCCCc4cn(CCOCCOCCOc5ccc(-c6oc7ccccc7c(=O)c6OCc6ccccc6)cc5)nn4)cc3)cc(=O)c2c1`, the IC50 is over 100 µM.

For the compound `COC(=O)c1cccc(COc2c(-c3ccc(OCCOCCn4cc(CN(Cc5ccncc5)Cc5cn(CCOCCOc6ccc(-c7oc8ccccc8c(=O)c7OCc7cccc(C(=O)OC)c7)cc6)nn5)nn4)cc3)oc3ccccc3c2=O)c1`, the IC50 is over 50 µM.

`Cc1ccc2oc(-c3ccc(OCCOCCOCCn4cc(CN(Cc5ccccc5)Cc5cn(CCOCCOCCOc6ccc(-c7cc(=O)c8cc(C)ccc8o7)cc6)nn5)nn4)cc3)cc(=O)c2c1`: the IC50 was over 100 µM.

For `Cc1ccc2oc(-c3ccc(OCCCCc4cn(CCOCCOc5ccc(-c6oc7ccccc7c(=O)c6OCc6ccccc6)cc5)nn4)cc3)cc(=O)c2c1`, the IC50 is over 100 µM.

`Cc1ccc2oc(-c3ccc(OCCCCc4cn(CCOCCOCCOc5ccc(-c6cc(=O)c7ccccc7o6)cc5)nn4)cc3)cc(=O)c2c1`: the IC50 was over 50 µM.

As for `O=c1cc(-c2ccccc2)oc2cc(OCCCc3cn(CCOCCOCCOc4ccc5c(=O)cc(-c6ccccc6)oc5c4)nn3)ccc12`, the IC50 is over 50 µM.

As to `O=c1cc(-c2ccc(OCCOCCn3cc(CN(Cc4ccccc4)Cc4cn(CCOCCOc5ccc(-c6cc(=O)c7ccccc7o6)cc5)nn4)nn3)cc2)oc2ccccc12`, the IC50 is over 100 µM.

`O=c1cc(-c2ccccc2)oc2cc(OCCN(Cc3ccccc3)Cc3cn(CCOCCOCCOc4ccc(-c5oc6ccccc6c(=O)c5OCc5ccccc5)cc4)nn3)ccc12`: the IC50 is over 100 µM.

As for `O=c1cc(-c2ccc(OCCCc3cn(CCOCCOCCOc4ccc5c(=O)cc(-c6ccccc6)oc5c4)nn3)cc2)oc2cc(F)ccc12`, the IC50 was over 100 µM.

In the case of `O=c1cc(-c2ccccc2)oc2cc(OCCOCCOCCn3cc(CN(CCOc4ccc5c(=O)cc(-c6ccccc6)oc5c4)Cc4ccccc4)nn3)ccc12`, the IC50 was over 100 µM.

Take `COC(=O)c1cccc(COc2c(-c3ccc(OCCOCCOCCn4cc(CCCOc5ccc6c(=O)cc(-c7ccccc7)oc6c5)nn4)cc3)oc3ccccc3c2=O)c1`: the IC50 was over 100 µM.

As to `Cc1ccc2oc(-c3ccc(OCCOCCOCCn4cc(CN(CCOc5ccc6c(=O)cc(-c7ccccc7)oc6c5)Cc5ccccc5)nn4)cc3)cc(=O)c2c1`, the IC50 was over 100 µM.

Take `O=c1cc(-c2ccc(OCCOCCOCCn3cc(CCCCOc4ccc5c(=O)cc(-c6ccccc6)oc5c4)nn3)cc2)oc2ccccc12`: the IC50 is over 50 µM.

As for `Cc1ccc2oc(-c3ccc(OCCOCCOCCn4cc(CCCCOc5ccc6c(=O)cc(-c7ccccc7)oc6c5)nn4)cc3)cc(=O)c2c1`, the IC50 was over 50 µM.

Consider `O=c1cc(-c2ccccc2)oc2cc(OCCCCc3cn(CCOCCOCCOc4ccc(-c5oc6ccccc6c(=O)c5OCc5ccccc5)cc4)nn3)ccc12`, for which the IC50 is over 100 µM.

Take `COC(=O)c1cccc(COc2c(-c3ccc(OCCOCCn4cc(CN5CCCN(Cc6cn(CCOCCOc7ccc(-c8oc9ccccc9c(=O)c8OCc8cccc(C(=O)OC)c8)cc7)nn6)CC5)nn4)cc3)oc3ccccc3c2=O)c1`: the IC50 was over 100 µM.

On to `Cc1ccc2oc(-c3ccc(OCCOCCOCCn4cc(CCCOc5ccc6c(=O)cc(-c7ccccc7)oc6c5)nn4)cc3)cc(=O)c2c1`, for which the IC50 was over 50 µM.

Take `O=c1cc(-c2ccccc2)oc2cc(OCCN(Cc3ccccc3)Cc3cn(CCOc4ccc5c(=O)cc(-c6ccccc6)oc5c4)nn3)ccc12`: the IC50 is over 100 µM.

Consider `O=c1cc(-c2ccccc2)oc2cc(OCCOCc3cn(CCOCCOc4ccc(-c5cc(=O)c6cc(F)ccc6o5)cc4)nn3)ccc12`, for which the IC50 was over 100 µM.

`COC(=O)c1cccc(COc2c(-c3ccc(OCCOCCn4cc(CCCCOc5ccc(-c6cc(=O)c7cc(C)ccc7o6)cc5)nn4)cc3)oc3ccccc3c2=O)c1`: the IC50 is over 100 µM.

As to `O=c1cc(-c2ccccc2)oc2cc(OCCCCc3cn(CCOCCOc4ccc(-c5oc6ccccc6c(=O)c5OCc5ccccc5)cc4)nn3)ccc12`, the IC50 was over 100 µM.

As for `COC(=O)c1cccc(COc2c(-c3ccc(OCCOCCOCCn4cc(CCCOc5ccc(-c6cc(=O)c7ccc(F)cc7o6)cc5)nn4)cc3)oc3ccccc3c2=O)c1`, the concentration for half-maximal inhibition (IC50) was over 100 µM.

With `O=c1cc(-c2ccccc2)oc2cc(OCCOCc3cn(CCOCCOCCOc4ccc(-c5cc(=O)c6cc(F)ccc6o5)cc4)nn3)ccc12`, the IC50 was over 50 µM.

Consider `Cc1ccc2oc(-c3ccc(OCCOCCOCCOCCOCCOc4ccc(-c5cc(=O)c6cc(C)ccc6o5)cc4)cc3)cc(=O)c2c1`, for which the IC50 is over 100 µM.

Take `COC(=O)c1cccc(COc2c(-c3ccc(OCCOCCOCCn4cc(CN5CCN(Cc6cn(CCOCCOCCOc7ccc(-c8oc9ccccc9c(=O)c8OCc8cccc(C(=O)OC)c8)cc7)nn6)CC5)nn4)cc3)oc3ccccc3c2=O)c1`: the IC50 is over 100 µM.

Consider `O=c1cc(-c2ccccc2)oc2cc(OCCCCc3cn(CCOCCOCCOc4ccc5c(=O)cc(-c6ccccc6)oc5c4)nn3)ccc12`, for which the IC50 was over 100 µM.

Usually IC50 stands for the concentration needed to halve the response being measured.
